In PubChem BioAssay AID1645848:
Values after ≈ are worked out from the molar mass of the structure shown.

Settings: buffer; pH 7.4; 6.0 h; 150.0 µM

SMILES	solubility kinetic [µg/mL]
CC(C)(C)CC(C)(C)c1ccc(O)cc1	2.09 (≈ 10.1 µM)
CS(=O)(=O)c1ccc(-c2cnc(NCc3ccco3)n3cnnc23)cc1	> 37
Cc1ccc(NS(=O)(=O)c2ccccc2C(=O)Nc2nc(-c3ccccc3)cs2)cc1	< 1
Cn1cc(Cl)c(C2N=C(Nc3nc4ccccc4o3)NC3=C2C(=O)CCC3)n1 (stereo unspecified)	36.4 (≈ 91.7 µM)
Cc1cc(C)c(CNC(=O)c2nc(-c3cccc(CO)c3)cc3c2ccn3C)c(=O)[nH]1	24.7 (≈ 59.4 µM)
CCOC(=O)C1CCN(c2nc(-c3ccc(Br)cc3)cs2)CC1	< 1
O=C1Nc2ccccc2/C1=C\c1ccc([N+](=O)[O-])cc1	< 1
COC1C(OC(=O)c2ccc(C)[nH]2)C(O)C(Oc2ccc3c(O)c(NC(=O)c4ccc(O)c(CC=C(C)C)c4)c(=O)oc3c2Cl)OC1(C)C (stereo unspecified)	> 100
Cc1ccc(S(=O)(=O)Nc2cnccc2C(=O)Nc2nc(-c3ccco3)cs2)cc1	> 65
COc1ccc2c(c1)N(C[C@H](C)CN(C)C)c1ccccc1S2	> 48
Nc1cc(CN2C(=O)c3ccccc3C2=O)cc(Cl)c1O	20.8 (≈ 68.8 µM)
O=C(CSc1nc(-c2ccc(F)cc2)[nH]c1-c1ccc(F)cc1)Nc1ccc2c(c1)OCCO2	< 1
O=C(O)CCNc1cc(N2CCc3ccccc3CC2)nc(-c2ccccn2)n1	> 58
C[C@@H](NC(=O)c1ncnc(N)c1Cl)c1ncc(C(=O)Nc2cc(C(F)(F)F)c(Cl)cn2)s1	> 75
CCn1c(=O)cc(OCC(=O)N2CCN(c3cccc(Cl)c3)CC2)c2ccccc21	2.64 (≈ 6.2 µM)
Cc1cnccc1-c1nc(Nc2ccc(F)c(F)c2)c2ccccc2n1	1.43 (≈ 4.09 µM)
O=C(NC1CCCc2c1[nH]c1ccc(Cl)cc21)c1ccncc1 (stereo unspecified)	< 1
COc1cccc(CNc2ccc(S(=O)(=O)Nc3nccs3)cc2)c1OC	3.6 (≈ 8.88 µM)
CC(C)N(CCC(=O)c1ccc2ccccc2c1)Cc1ccccc1	13.4 (≈ 40.3 µM)
CC(C)COc1ccc(-c2ccc(=O)n(CC(=O)NCCc3ccccc3)n2)cc1	< 1
Clc1ccccc1Nc1nc(-c2ccncc2)nc2ccccc12	< 1
CCN1CCN(CCCOc2ccc(-c3ccccc3)cc2)CC1	> 48
Fc1ccc(Nc2nc(-c3ccncc3)ncc2-c2ccccc2)cc1F	< 1
CC(C)CS(=O)(=O)c1oc(-c2ccc(F)cc2)nc1S(=O)(=O)c1ccccc1	< 1
COc1ccc(CN2CCN(C(=O)c3cc4c(s3)CCC4)CC2)cc1	> 53
CC(=O)c1c(C)[nH]c(C(=O)Nc2cccc([S+](=O)([O-])Nc3ccccn3)c2)c1C	> 61

SMILES	solubility kinetic [µg/mL]
COc1cccc(-n2ncc3c2CCCC3NC(=O)c2ccccn2)c1 (stereo unspecified)	> 51
COCCNC(=O)c1ccc(Cn2c(=S)[nH]c3cc4c(cc3c2=O)OCO4)cc1	6.98 (≈ 16.9 µM)
O=C1Nc2ccccc2/C1=C/c1cc(Cl)c(O)c(Cl)c1	> 45
CC1CCC(n2c3cnccc3c3cnc(Nc4ccc5c(n4)CCN(C(=O)CO)C5)nc32)CC1 (stereo unspecified)	< 1
COc1cc2c(cc1OC)C(C[C@H]1CN(S(=O)(=O)c3cccc(C#N)c3)CC[C@H]1CC(=O)O)=NCC2	> 76
O=C(Nc1ncccc1O)c1ccc(S(=O)(=O)Nc2ccccc2)cc1	> 55
Cc1ccc(CN2C(=O)C(O)(CC(=O)c3ccc(C)cc3)c3ccccc32)cc1 (stereo unspecified)	< 1
CC(Nc1ccc([S+](=O)([O-])Nc2nccs2)cc1)c1ccccc1 (stereo unspecified)	4.76 (≈ 13.3 µM)
O=C1Nc2ccccc2/C1=C\c1cc(F)c(O)c(F)c1	> 40
Cc1ccccc1C(=O)Nc1sc2c(c1C(=O)NCc1ccco1)CCC(C(C)(C)C)C2 (stereo unspecified)	< 1
CN1CCc2cc3c(cc2C1)OCO3	> 28
Cc1cc2c(-c3cccc(O)c3)nc(-c3c(C)noc3C)cc2[nH]1	< 1
CC(C)(C)C1CCc2[nH]c3ccccc3c(=O)c2C1 (stereo unspecified)	1.88 (≈ 7.34 µM)
CCn1c(SCc2ccc(C#N)cc2)nnc1-c1cccc(Cl)c1	34.2 (≈ 96.3 µM)
CN(C)C(=O)C1CCN(c2nc(-c3ccc(Br)cc3)cs2)CC1	1.8 (≈ 4.56 µM)
O=C(Nc1cccc(C(F)(F)F)c1)c1ccccc1NC(=O)C1CCCCC1	< 1
CCOC(=O)c1cnc2ccc(-c3cncc(NS(=O)(=O)c4ccccc4)c3)cn12	6.49 (≈ 15.4 µM)
Cc1ccc(NS(=O)(=O)c2ccc(C(=O)Nc3nc(-c4ccccc4)cs3)cc2)cc1	< 1
CC(=O)Nc1ccc(-c2csc(N3CCC(C(N)=O)CC3)n2)cc1	> 51
Cc1cccc2nc(-c3ccccn3)c(Nc3ccc(F)cc3)n12	34.2 (≈ 107 µM)
Nc1ncnc(N2CCc3ccccc32)c1[N+](=O)[O-]	< 1
Cc1sc2c(c1C)C(c1ccc(Cl)cc1)=N[C@@H](CC(=O)Nc1ccc(OCCOCCOCCOCCNc3cccc4c3C(=O)N(C3CCC(=O)NC3=O)C4=O)cc1)c1nnc(C)n1-2 (stereo partly specified)	< 1
CNc1ccc(Br)cc(C(=O)/C=C/c2ccc(OC)cc2OC)c1=O	1.94 (≈ 4.8 µM)
Cc1cc(NS(=O)(=O)c2ccc(NC(=O)Cc3ccc(Cl)c(Cl)c3)cc2)no1	> 65
CN1CCN(C2=Nc3cc(Cl)ccc3Nc3ccccc32)CC1	25.1 (≈ 76.8 µM)
Cc1ccc(NC(=O)c2cc(-c3ccc[nH]3)n[nH]2)cc1F	> 28

SMILES	solubility kinetic [µg/mL]
CC(=O)c1ccc(N2CCN(S(=O)(=O)c3ccc4c(c3)n(C)c(=O)n4C)CC2)cc1	2.6 (≈ 6.07 µM)
COc1cc(C(=O)NC2CCCc3c2[nH]c2c(Cl)cccc32)cc(OC)c1OC (stereo unspecified)	< 1
Cc1ccccc1C(=O)N1CCc2cc(-c3nc(NC(=O)Cc4ccccc4)sc3C)ccc21	< 1
CC(=O)c1ccc(N2CCN(S(=O)(=O)c3ccc4c(c3)CC(=O)N4)CC2)cc1	2.85 (≈ 7.13 µM)
O=C(Nc1ccc(-c2ccccc2)cc1)[C@H](Cc1ccc(O[S+](=O)([O-])c2cccc3cnccc23)cc1)N[S+](=O)([O-])c1cccc2cnccc12	< 1
Cc1c(Cl)cccc1NC(=O)CNS(=O)(=O)c1cccs1	> 51
Cc1ccnc(NC(=S)N2CCN(c3cccc(C(F)(F)F)c3)CC2)c1	9.68 (≈ 25.4 µM)
Cc1ccc2c(c1)[nH]c1c(N3CCN(Cc4ccccc4)CC3)ncnc12	< 1
COc1c(Cl)cc2c([nH]c3cnccc32)c1NC(=O)c1cccnc1C	6.08 (≈ 16.6 µM)
CNC(=O)Cn1cc(-c2ccc3c(c2)C(F)CC32NC(=O)N(CC(=O)N(Cc3ccc(F)cc3)[C@@H](C)C(F)(F)F)C2=O)cn1 (stereo partly specified)	22 (≈ 35.5 µM)
Cc1noc(C)c1-c1ccc(Nc2nc(-c3ccncc3)nc3ccccc23)cc1F	< 1
O=C(Nc1ccc(Cl)c(S(=O)(=O)N2CCOCC2)c1)c1ccc(S(=O)(=O)N2CCOCC2)cc1	< 1
FC(F)(F)c1cccc(Nc2ccc(CNc3nc(-c4ccccc4C(F)(F)F)nc4ccccc34)cc2)c1	< 1
CC(C)c1ccc(Nc2c(-c3ccccn3)nc3ccccn23)cc1	< 1
Cc1ccc(S(=O)(=O)Nc2cnccc2C(=O)Nc2ccccc2)cc1	> 54
COc1cc(Cl)ccc1C(=O)Nc1nc(-c2ccccc2)cs1	< 1
CCOc1ccccc1N(CC(=O)N1CCOCC1)S(=O)(=O)c1ccc(SC)cc1	> 67
OC(CCN1CCCCC1)c1ccc(-c2ccccc2)cc1 (stereo unspecified)	> 44
CCOC(=O)N1CCN(C(=O)Cn2sc3nc(C)cc(C)c3c2=O)CC1	39 (≈ 103 µM)
CC(=O)Nc1ccc(S(=O)(=O)Nc2nccs2)cc1	> 44
CSc1ccc(C(=O)c2[nH]c(=O)[nH]c2C)cc1	> 37
Cc1ccccc1C(=O)Nc1nc2c(s1)CC(C(C)(C)C)CC2 (stereo unspecified)	< 1
Oc1c(C(Nc2nccs2)c2ccc(C(F)(F)F)cc2)ccc2cccnc12 (stereo unspecified)	< 1
Fc1ccccc1-c1ccc(Nc2nc(-c3ccncc3)nc3ccccc23)cc1F	< 1
COc1cc2c(cc1OCCCN1CCCC1)N=C(N)C21CCC1	> 49
Fc1ccc(CNc2nc(-c3ccncc3)nc3ccccc23)cc1F	< 1

SMILES	solubility kinetic [µg/mL]
Cc1ccccc1-c1nc(CN2CCC(C(=O)NCCCN3CCOCC3)CC2)c(C)o1	> 65
O=C(NCc1ccccc1)c1cn2cc(-c3ccccc3)sc2n1	< 1
CN(C)C(=O)c1ccc(-c2cc[nH]c(=O)c2N)cc1	> 38
NC(=O)C1CCN(c2nc(-c3cccs3)cs2)CC1	> 43
COC12C(COC(N)=O)C3=C(C(=O)C(C)=C(N)C3=O)N1CC1C2N1C (stereo unspecified)	> 51
CC[C@@H](CO)NC(=O)[C@@H]1C=C2c3cccc4c3c(cn4C)C[C@H]2N(C)C1	> 52
Cc1ccc(S(=O)(=O)Nc2ccc(Br)cc2C(=O)Nc2nc(-c3ccccc3)cs2)cc1	< 1
O=[S+]([O-])(Nc1ccc(N2CCNCC2)cc1)c1ccc(NCc2ccc(Br)cc2O)cc1	20.1 (≈ 38.8 µM)
Cc1ccccc1NC(=O)Nc1cccs1	> 34
O=C(O)C(=O)O.Oc1ccccc1NCC(O)Cn1ccc2ccccc21 (stereo unspecified)	8.51
Brc1ccc(-c2csc(N3CCCCC3)n2)cc1	< 1
COc1cc(O)c([C@H](CC(=O)N2CC(C)CC(C)C2)c2ccc3c(c2)OCO3)c(OC)c1 (stereo partly specified)	2.51 (≈ 5.69 µM)
CCCCCCN(CCCCCC)C(=O)Cc1c(-c2ccc(F)cc2)[nH]c2ccccc12	< 1
COc1cccc(CNc2ccc(S(=O)(=O)Nc3nccs3)cc2)c1O	> 58
O=C(c1ccncc1)N1CCC2(CCCN(C(c3ccccc3)c3ccccc3)C2)CC1	< 1
CC(C)COc1ccc(-c2csc(N3CCC(C(N)=O)CC3)n2)cc1	2.68 (≈ 7.45 µM)
O=c1cc(CSc2ccc(Cl)cc2)nc(-c2ccccn2)[nH]1	1.18 (≈ 3.58 µM)
CC(=O)Nc1cccc(Nc2nc3ccccc3n3c(C)nnc23)c1	< 1
CCOc1ccc(CCNC(=O)c2cc3cccnc3n2Cc2cccc(C)c2)cc1OCC	< 1
COC(=O)c1ccccc1NC(=O)c1ccccc1OC(F)F	< 1
CCNc1oc(-c2cccc3ccccc23)nc1C#N	< 1
O=S(=O)(Nc1ccc(-c2ccccc2)cc1)c1ccc(NCc2cccc(Cl)c2O)cc1	< 1
Fc1ccc(-c2csc3ncnc(Sc4nnnn4C4CC4)c23)cc1	2.91 (≈ 7.85 µM)
